In the oligonucleotide strings, read from the 5' end, every base follows the letter of its sugar. An asterisk marks phosphorothioate; unmarked linkages are phosphodiester. Other units and linkages are bracketed, terminal groups are in braces. A string of capitals states the bases alone. e = 2'-O-(2-methoxyethyl) (MOE); [5mC] = 5-methylcytosine; d = 2'-deoxy (DNA)
System: human Factor 7 mRNA
Experiment: Antisense inhibition of human Factor 7 mRNA in HepB3 cells, lipofectin, 50 nM, real-time RT-PCR
Assay type: cell-based
Details: for % Inhibition (human Factor 7 mRNA): 50 nM, ~24 h
Protocol: Antisense oligonucleotides targeted to a Factor 7 nucleic acid were tested for their effects on Factor 7 mRNA in vitro. Cultured HepB3 cells at a density of 4,000 cells per well were transfected using lipofectin reagent with 50 nM antisense oligonucleotide. After a treatment period of approximately 24 hours, RNA was isolated from the cells and Factor 7 mRNA levels were measured by real-time RT-PCR, as described herein. Factor 7 mRNA levels were adjusted according to total RNA content as measured by RIBOGREEN®. Results are presented as percent inhibition of Factor 7, relative to untreated control cells.
(§1) Antisense oligonucleotides targeted to a Factor 7 nucleic acid were designed and tested for their effects on Factor 7 mRNA in vitro. Certain antisense oligonucleotides from Table 3 were also retested for their effects on Factor 7 mRNA in vitro. Cultured HepB3 cells at a density of 4,000 cells per well were transfected using lipofectin reagent with 50 nM antisense oligonucleotide. After a treatment period of approximately 24 hours, RNA was isolated from the cells and Factor 7 mRNA levels were measured by real-time RT-PCR, as described herein. Human Factor 7 primer probe set RTS 2927 was used to measure mRNA levels. Factor 7 mRNA levels were adjusted according to total RNA content as measured by RIBOGREEN®. Results are presented as percent inhibition of Factor 7, relative to untreated control.
as §1, with “tested” for “tested for their effects on Factor 7 mRNA in vitro. Certain antisense oligonucleotides from Table 3 were also retested”
These gapmers were designed by creating gapmers shifted slightly upstream and downstream (i.e. “microwalk”) of the original gapmers from Table 7. Gapmers were also created with various motifs, e.g. 5-10-5 MOE, 3-14-3 MOE, and 2-13-5 MOE. These gapmers were tested in vitro. Cultured HepB3 cells at a density of 4,000 cells per well were transfected using lipofectin reagent with 50 nM antisense oligonucleotide. After a treatment period of approximately 24 hours, RNA was isolated from the cells and Factor 7 mRNA levels were measured by real-time RT-PCR. Factor 7 mRNA levels were adjusted according to total RNA content, as measured by RIBOGREEN®. Results are presented as percent inhibition of Factor 7, relative to untreated control cells.

[1] = Example 1, HepB3 cells, lipofectin, relative to untreated control cells
[2] = HepB3 cells, lipofectin, 50 nM antisense oligonucleotide, approximately 24 hours, primer probe set RTS 2927, relative to untreated control
[3] = Example 6 microwalk, nucleobases 15098 to 15122 of SEQ ID NO: 1, HepB3, lipofectin
[4] = HepB3 cells, gapmers (5-10-5, 3-14-3, 2-13-5 MOE) targeted to nucleobases 4868 to 4899 of SEQ ID NO: 1
[5] = HepB3 cells, gapmers targeted to nucleobases 11830 to 11869 of SEQ ID NO: 1 (Table 9)
[6] = HepB3 cells, gapmers targeted to nucleobases 14707 to 14732 of SEQ ID NO: 1 (Table 11)
[7] = HepB3 cells, gapmers targeted to nucleobases 13760 to 13789 of SEQ ID NO: 1 (Table 10)

422118 (antisense e[5mC]*eG*eG*eA*eA*dG*dA*dA*dG*dG*dG*dA*d[5mC]*dG*dG*eA*eA*eG*eG*eT) [compound 422118]
% Inhibition (human Factor 7 mRNA) (Example 4, HepB3 cells, lipofectin, relative to untreated control): 15%

407961 (antisense eA*eA*eG*eT*eA*dG*dA*dT*dG*dA*dT*dG*d[5mC]*d[5mC]*dT*eG*eA*eG*eT*eG) [compound 407961]
% Inhibition (human Factor 7 mRNA) [1]: 34%

416474 (antisense eT*eG*eT*e[5mC]*eT*dG*d[5mC]*d[5mC]*dT*d[5mC]*d[5mC]*dA*dG*dG*dA*e[5mC]*eA*eA*e[5mC]*e[5mC]) [compound 416474]
% Inhibition of human Factor 7 mRNA levels [2]: 40%

407956 (antisense eA*eA*e[5mC]*eT*eT*dG*d[5mC]*dA*dT*dT*dT*dA*dG*dT*dG*eA*eT*eG*e[5mC]*eG) [compound 407956]
% Inhibition (human Factor 7 mRNA) [1]: 19%

422136 (antisense e[5mC]*eA*eG*e[5mC]*eA*d[5mC]*dA*d[5mC]*dA*dT*dG*dG*dA*dG*dT*e[5mC]*eA*eG*e[5mC]*eA) [compound 422136]
% Inhibition (human Factor 7 mRNA) [3]: 57%

416524 (antisense eT*eA*eA*eT*eT*dT*dA*dA*dT*dA*dT*dT*d[5mC]*dA*dG*eA*eT*eG*eG*eT) [compound 416524]
% Inhibition of human Factor 7 mRNA levels [2]: 0%

422144 (antisense e[5mC]*e[5mC]*e[5mC]*eG*eA*dG*dT*dT*d[5mC]*dT*dG*d[5mC]*dA*dG*dG*eA*eG*e[5mC]*eG*eG) [compound 422144]
% Inhibition of human Factor 7 mRNA levels [4]: 58%

407639 (antisense eT*eT*eT*eG*e[5mC]*dA*dG*d[5mC]*d[5mC]*dA*d[5mC]*dT*d[5mC]*dG*dA*eT*eG*eT*eA*e[5mC]) [compound 407639]
% Inhibition (human Factor 7 mRNA) [1]: 76%

416497 (antisense e[5mC]*eG*eT*eG*e[5mC]*dA*dG*dG*dT*dG*dT*dT*dA*dA*dG*eG*eT*eG*eT*eG) [compound 416497]
% Inhibition of human Factor 7 mRNA levels [2]: 0%

422301 (antisense eG*eG*dA*dG*d[5mC]*d[5mC]*d[5mC]*dG*dA*dG*dT*dT*d[5mC]*dT*dG*e[5mC]*eA*eG*eG*eA) [compound 422301]
% Inhibition of human Factor 7 mRNA levels [4]: 67%

407629 (antisense eT*e[5mC]*eA*eG*eT*dG*dA*dG*dG*dA*d[5mC]*d[5mC]*dA*d[5mC]*dG*eG*eG*e[5mC]*eT*eG) [compound 407629]
% Inhibition (human Factor 7 mRNA) [1]: 34%

422242 (antisense eG*eG*dA*dG*dA*d[5mC]*dA*dA*dT*dG*dG*dT*d[5mC]*dA*dG*eG*eG*e[5mC]*eT*eG) [compound 422242]
% Inhibition of human Factor 7 mRNA levels [5]: 64%

407896 (antisense e[5mC]*eG*eT*eG*eT*dG*dG*dT*d[5mC]*dA*d[5mC]*dT*dG*d[5mC]*dA*eG*eT*eA*e[5mC]*eT) [compound 407896]
% Inhibition (human Factor 7 mRNA) [1]: 73%

422200 (antisense e[5mC]*e[5mC]*eT*dG*dA*dG*dG*d[5mC]*d[5mC]*dA*dG*d[5mC]*dA*dG*dA*dT*d[5mC]*eA*e[5mC]*eG) [compound 422200]
% Inhibition of human Factor 7 mRNA levels [6]: 58%

422184 (antisense eT*eG*e[5mC]*dG*d[5mC]*d[5mC]*dA*d[5mC]*d[5mC]*d[5mC]*dG*d[5mC]*d[5mC]*dG*dG*d[5mC]*dT*e[5mC]*eT*eG) [compound 422184]
% Inhibition of human Factor 7 mRNA levels [7]: 55%

422180 (antisense e[5mC]*e[5mC]*eA*d[5mC]*d[5mC]*d[5mC]*dG*d[5mC]*d[5mC]*dG*dG*d[5mC]*dT*d[5mC]*dT*dG*d[5mC]*eT*e[5mC]*eA) [compound 422180]
% Inhibition of human Factor 7 mRNA levels [7]: 54%

422284 (antisense e[5mC]*eA*d[5mC]*dA*d[5mC]*dA*dT*dG*dG*dA*dG*dT*d[5mC]*dA*dG*e[5mC]*eA*eT*e[5mC]*eG) [compound 422284]
% Inhibition (human Factor 7 mRNA) [3]: 43%

407944 (antisense e[5mC]*e[5mC]*eA*eG*eT*dG*dG*dG*dT*dG*dG*d[5mC]*dA*dG*dG*e[5mC]*eA*e[5mC]*e[5mC]*eA) [compound 407944]
% Inhibition (human Factor 7 mRNA) [1]: 59%

416423 (antisense eG*eT*eG*eT*eT*dT*d[5mC]*dT*d[5mC]*d[5mC]*dT*d[5mC]*d[5mC]*dT*dG*eA*eG*eG*e[5mC]*e[5mC]) [compound 416423]
% Inhibition of human Factor 7 mRNA levels [2]: 51%

407951 (antisense eA*eA*e[5mC]*eA*eG*d[5mC]*dT*dT*dT*dT*dG*dT*dT*dT*dT*eT*eA*eA*eA*eA) [compound 407951]
% Inhibition (human Factor 7 mRNA) [1]: 0%

422109 (antisense e[5mC]*e[5mC]*e[5mC]*eG*e[5mC]*d[5mC]*dG*dG*d[5mC]*dT*d[5mC]*dT*dG*d[5mC]*dT*e[5mC]*eA*eT*e[5mC]*e[5mC]) [compound 422109]
% Inhibition of human Factor 7 mRNA levels [7]: 68%

416440 (antisense eG*eG*eA*e[5mC]*eT*dG*dG*dA*dG*d[5mC]*dT*dG*dG*dT*d[5mC]*e[5mC]*eT*eT*eG*e[5mC]) [compound 416440]
% Inhibition of human Factor 7 mRNA levels [2]: 44%

407595 (antisense eT*e[5mC]*e[5mC]*eT*eG*dA*dG*dG*d[5mC]*d[5mC]*dT*dT*dA*dG*d[5mC]*eG*eA*e[5mC]*e[5mC]*e[5mC]) [compound 407595]
% Inhibition (human Factor 7 mRNA) [1]: 71%

416547 (antisense eA*eT*eG*eA*eA*dA*dT*dT*d[5mC]*dT*dA*d[5mC]*d[5mC]*dT*dA*eA*eA*eG*eA*eT) [compound 416547]
% Inhibition of human Factor 7 mRNA levels [2]: 0%

422206 (antisense e[5mC]*eA*eG*d[5mC]*dA*dG*d[5mC]*d[5mC]*dT*dG*dA*dG*dG*d[5mC]*d[5mC]*dA*dG*e[5mC]*eA*eG) [compound 422206]
% Inhibition of human Factor 7 mRNA levels [6]: 65%

416535 (antisense eG*e[5mC]*eA*eG*eG*dA*dT*dG*d[5mC]*dA*d[5mC]*dA*d[5mC]*d[5mC]*dA*eG*eG*eG*e[5mC]*eT) [compound 416535]
% Inhibition of human Factor 7 mRNA levels [2]: 47%

422211 (antisense eA*e[5mC]*eA*dG*d[5mC]*dA*d[5mC]*dA*d[5mC]*dA*dT*dG*dG*dA*dG*dT*d[5mC]*eA*eG*e[5mC]) [compound 422211]
% Inhibition (human Factor 7 mRNA) [3]: 42%

407903 (antisense e[5mC]*e[5mC]*eG*e[5mC]*eG*dG*dA*dG*dA*d[5mC]*d[5mC]*dA*d[5mC]*d[5mC]*d[5mC]*eA*eG*eA*eT*eG) [compound 407903]
% Inhibition (human Factor 7 mRNA) [1]: 98%

407912 (antisense e[5mC]*e[5mC]*e[5mC]*eG*eG*dT*dA*dG*dT*dG*dG*dG*dT*dG*dG*e[5mC]*eA*eT*eG*eT) [compound 407912]
% Inhibition (human Factor 7 mRNA) [1]: 46%

407655 (antisense eA*eG*eA*eG*eT*dG*d[5mC]*dA*dG*d[5mC]*dT*dT*dG*d[5mC]*d[5mC]*eA*eG*eG*eT*e[5mC]) [compound 407655]
% Inhibition (human Factor 7 mRNA) [1]: 28%

416488 (antisense e[5mC]*eA*eG*eG*eT*d[5mC]*d[5mC]*dT*d[5mC]*d[5mC]*d[5mC]*dA*d[5mC]*dT*dG*e[5mC]*eA*eG*e[5mC]*e[5mC]) [compound 416488]
% Inhibition of human Factor 7 mRNA levels [2]: 41%

422155 (antisense eG*eT*e[5mC]*dA*dG*dG*dG*d[5mC]*dT*dG*dG*dT*dT*dT*dT*dG*dG*eA*eG*eG) [compound 422155]
% Inhibition of human Factor 7 mRNA levels [5]: 34%

407631 (antisense eG*eG*eG*e[5mC]*eA*d[5mC]*d[5mC]*dA*d[5mC]*dA*dT*dG*dG*dT*d[5mC]*eA*eG*eT*eG*eA) [compound 407631]
% Inhibition (human Factor 7 mRNA) [1]: 66%

Reference: patent US20120214862A1, “MODULATION OF FACTOR 7 EXPRESSION” (ISIS Pharmaceuticals, Inc., priority 2009, published 2012)
